Assay results as given in PubChem BioAssay (NCI).
“And” between values parts separate entries of the source, which are not always exact repeats. Identical values can stand only once.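 Following 48 hours of exposure in 96-well plates, responses at five concentrations were used to interpolate endpoints linearly. GI50 marks 50% less growth. TGI is the concentration that stops growth completely.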

Columns and labels:
Test in all cases: NCI tumour cell line growth inhibition, 48 h
[1] = system: A498 renal
[2] = system: MOLT-4 leukemia
[3] = system: PC-3 prostate
[4] = system: SK-MEL-28 melanoma
[5] = system: SN12C renal
[6] = system: SR leukemia
[7] = system: T-47D breast
[8] = system: TK-10 renal

SMILES: O=P1(O)c2ccccc2CSCc2ccccc21
- TGI [1]: > 100 µM
- TGI [2]: > 100 µM
- TGI [3]: > 100 µM
- TGI [4]: > 100 µM
- TGI [5]: > 100 µM
- TGI [6]: > 100 µM
- TGI [7]: > 100 µM
- TGI [8]: > 100 µM

SMILES: Nc1nc(N)c2cc(Sc3ccc(Cl)cc3)ccc2n1
- GI50 [1]: 3.19 µM
- TGI [1]: 19 µM
- GI50 [2]: 1.9 µM
- TGI [2]: 11.1 µM
- GI50 [3]: 0.592 µM
- TGI [3]: 13.8 µM
- GI50 [4]: 2.68 µM
- TGI [4]: 8.05 µM
- GI50 [5]: 2.91 µM
- TGI [5]: 17.9 µM
- GI50 [6]: 1.37 µM
- TGI [6]: 5.43 µM
- GI50 [7]: 1.61 µM
- TGI [7]: 3.33 µM
- GI50 [8]: 4.91 µM
- TGI [8]: 17.2 µM

SMILES: Nc1cc2c(c3ccccc13)C(CCl)CN2C(=O)c1cc2cc(NC(=O)c3cc4ccccc4o3)ccc2[nH]1 (stereo not drawn)
- GI50 [5]: > 0.11 µM
- TGI [5]: 1.67 µM
- GI50 [6]: > 0.11 µM
- TGI [6]: 200 µM
- GI50 [7]: > 0.11 µM

SMILES: COC(=O)CC12CC(NC(=O)c3csc([C@@H](C[C@H](C(C)C)N(C)C(=O)[C@@H](NC(=O)[C@H]4CCCCN4C)C(C)C)OC(C)=O)n3)(C1)C2
- GI50 [1]: 0.00384 µM and 0.00545 µM
- TGI [1]: 0.0224 µM
- GI50 [2]: 0.00615 µM and 0.0143 µM
- TGI [2]: > 33.3 µM
- GI50 [3]: 0.00396 µM and 0.0101 µM
- TGI [3]: > 33.3 µM
- GI50 [5]: 0.00446 µM and 0.0202 µM
- TGI [5]: > 33.3 µM
- GI50 [6]: 0.00187 µM and 0.00333 µM
- TGI [6]: > 33.3 µM
- GI50 [8]: 0.415 µM
- TGI [8]: > 33.3 µM

SMILES: COc1ccc(-c2nc(Nc3ccc(F)cc3)nc(Nc3ccc4c(c3)nc(C)n4Cc3ccccc3)n2)cc1
- GI50 [1]: 2.39 µM
- TGI [1]: 62.4 µM
- GI50 [2]: 3.44 µM
- TGI [2]: > 100 µM
- GI50 [3]: 3.11 µM
- TGI [3]: > 100 µM
- GI50 [4]: 4.14 µM
- TGI [4]: > 100 µM
- GI50 [5]: 6.18 µM
- TGI [5]: > 100 µM
- GI50 [6]: 3.49 µM
- TGI [6]: 47.8 µM
- GI50 [7]: 2.42 µM
- TGI [7]: 44.2 µM

SMILES: Nc1ncnc2occ(-c3ccc(NC(=O)Nc4cc(C(F)(F)F)ccc4F)cc3)c12
- GI50 [1]: 1.09 µM and 0.506 µM
- TGI [1]: 6.14 µM and 2.69 µM
- GI50 [2]: 7.47 µM and 3.7 µM
- TGI [2]: 23.6 µM and 14.4 µM
- GI50 [3]: 5.92 µM and 5.35 µM
- TGI [3]: 15.8 µM and 16.1 µM
- GI50 [4]: 5.73 µM and 4.57 µM
- TGI [4]: 14.3 µM and 11.5 µM
- GI50 [5]: 4 µM and 1.47 µM
- TGI [5]: 21.2 µM and 11.6 µM
- GI50 [6]: 2.15 µM and 1.05 µM
- TGI [6]: 11.7 µM and > 25 µM
- GI50 [7]: 6.42 µM and 3.5 µM
- TGI [7]: 16.9 µM and 10.9 µM
- GI50 [8]: 4.78 µM and 1.6 µM
- TGI [8]: 14.3 µM and 8.76 µM

SMILES: Fc1ccc(-c2nn3c(COc4ccccc4Cl)nnc3s2)cc1Oc1ccccc1
- GI50 [1]: 67.6 µM
- TGI [1]: > 100 µM
- GI50 [3]: 22.6 µM
- TGI [3]: 73.8 µM
- GI50 [4]: 54.6 µM
- TGI [4]: > 100 µM
- GI50 [5]: 20.8 µM
- TGI [5]: 56.6 µM
- GI50 [7]: 34.5 µM
- TGI [7]: > 100 µM
- GI50 [8]: 20.5 µM
- TGI [8]: 47.1 µM

SMILES: CC12OC(C(=O)C13CC3)C1C(=O)c3cccc(O)c3C(=O)C12 (stereo not drawn)
- GI50 [1]: 16.3 µM
- TGI [1]: 30.4 µM
- GI50 [2]: 1.83 µM
- TGI [2]: > 100 µM
- GI50 [3]: 10.3 µM
- TGI [3]: 34.3 µM
- GI50 [4]: 23.1 µM
- TGI [4]: > 61.4 µM
- GI50 [5]: 4.96 µM
- TGI [5]: 18.9 µM
- GI50 [7]: 23.3 µM
- TGI [7]: > 70.6 µM
- GI50 [8]: 8.82 µM
- TGI [8]: 30.6 µM

SMILES: O=C(O)c1ccc(NCn2nc(-c3ccccc3O)oc2=S)cc1O
- GI50 [2]: 26.1 µM
- TGI [2]: 82.1 µM
- GI50 [3]: 86.6 µM
- TGI [3]: > 100 µM
- GI50 [4]: > 100 µM
- TGI [4]: > 100 µM
- GI50 [5]: 8.85 µM
- TGI [5]: 60.1 µM
- GI50 [7]: > 100 µM
- TGI [7]: > 100 µM
- GI50 [8]: > 100 µM
- TGI [8]: > 100 µM

SMILES: COc1ncnn2ccc(-c3cnc4nc(C)n(Cc5nnc(C(C)F)o5)c4c3)c12 (stereo not drawn)
- GI50 [1]: 0.163 µM
- TGI [1]: 0.62 µM
- GI50 [2]: 0.231 µM
- TGI [2]: > 20.8 µM
- GI50 [3]: 0.281 µM
- TGI [3]: > 100 µM
- GI50 [4]: 0.298 µM
- TGI [4]: 13.8 µM
- GI50 [5]: 0.255 µM
- TGI [5]: > 58.1 µM
- GI50 [6]: 0.156 µM
- TGI [6]: 16 µM
- GI50 [7]: 0.0853 µM
- TGI [7]: > 100 µM
- GI50 [8]: 0.367 µM
- TGI [8]: > 100 µM

SMILES: Nc1n[nH]c2ccc([C@H]3[C@@H]4C5CCC(C5)[C@@H]4c4c(ccc5[nH]ncc45)N3S(=O)(=O)C3CC3)cc12 (stereo partly drawn)
- GI50 [1]: 0.108 µM
- TGI [1]: 0.384 µM
- GI50 [2]: 0.184 µM
- GI50 [3]: 0.185 µM
- TGI [3]: 9.85 µM
- GI50 [4]: 2 µM
- TGI [4]: 26 µM
- GI50 [5]: 0.272 µM
- TGI [5]: > 50 µM
- GI50 [6]: 0.15 µM
- GI50 [8]: 3.98 µM
- TGI [8]: 36.4 µM

SMILES: NS(=O)(=O)c1ccc(N=Nc2c(O)[nH]c3cccc(CCc4ccncc4)c23)cc1
- GI50 [1]: > 25 µM
- TGI [1]: > 25 µM
- GI50 [2]: > 25 µM
- TGI [2]: > 25 µM
- GI50 [3]: > 25 µM
- TGI [3]: > 25 µM
- GI50 [4]: > 25 µM
- TGI [4]: > 25 µM
- GI50 [5]: > 25 µM
- TGI [5]: > 25 µM
- GI50 [6]: > 25 µM
- TGI [6]: > 25 µM
- GI50 [7]: > 25 µM
- TGI [7]: > 25 µM
- GI50 [8]: > 25 µM
- TGI [8]: > 25 µM

SMILES: Cc1cccc2c1NC(=O)[C@@H](NC(=O)[C@H](CCC(F)(F)F)[C@H](CCC(F)(F)F)C(N)=O)N=C2c1cccc(F)c1
- GI50 [1]: 36.6 µM
- TGI [1]: > 100 µM
- GI50 [2]: > 100 µM
- TGI [2]: > 100 µM
- GI50 [3]: 39.5 µM
- TGI [3]: > 100 µM
- GI50 [4]: > 100 µM
- TGI [4]: > 100 µM
- GI50 [5]: 28.4 µM
- TGI [5]: > 100 µM
- GI50 [6]: 49.4 µM
- TGI [6]: > 100 µM
- GI50 [7]: 34.5 µM
- TGI [7]: > 100 µM
- GI50 [8]: 34.7 µM
- TGI [8]: > 100 µM

SMILES: COc1ccc2c(c1)OC(N)=C(C#N)C2c1ccc(F)c(F)c1 (stereo not drawn)
- GI50 [1]: 0.231 µM
- TGI [1]: 5.96 µM
- GI50 [2]: 0.55 µM
- TGI [2]: > 100 µM
- GI50 [3]: 0.569 µM
- TGI [3]: > 100 µM
- GI50 [4]: 3.43 µM
- TGI [4]: > 100 µM
- GI50 [5]: 0.718 µM
- TGI [5]: > 70.6 µM
- GI50 [6]: 0.325 µM
- TGI [6]: > 52.2 µM
- GI50 [7]: 0.334 µM
- TGI [7]: > 55.3 µM
- GI50 [8]: 14.7 µM
- TGI [8]: > 100 µM

SMILES: CCCC(c1cc(C(C)(C)C)c(O)cc1C)c1cc(C(C)(C)C)c(O)cc1C
- TGI [1]: 4.51 µM
- TGI [2]: 5.41 µM
- TGI [3]: 8.78 µM
- TGI [4]: 12.4 µM
- TGI [5]: 3.81 µM
- TGI [6]: 5.33 µM
- TGI [7]: 8.92 µM
- TGI [8]: 9.55 µM

SMILES: COc1cc2cc(Oc3ccc(NC(=O)Nc4ccc(F)c(C(F)(F)F)c4)cc3)c(C)nc2cc1OCCN1CCOCC1
- GI50 [1]: 2.8 µM
- TGI [1]: 10.2 µM
- GI50 [2]: 1.86 µM
- TGI [2]: 11.4 µM
- GI50 [3]: 1.44 µM
- TGI [3]: 10.1 µM
- GI50 [4]: 1.62 µM
- TGI [4]: 3.13 µM
- GI50 [5]: 2.65 µM
- TGI [5]: 15.5 µM
- GI50 [7]: 1.91 µM
- TGI [7]: 32.1 µM
- GI50 [8]: 4.94 µM
- TGI [8]: 25.1 µM

SMILES: N#CC1(C#N)C2C=CC(C3CC=CC32)C1(C#N)C#N (stereo not drawn)
- TGI [1]: 16.9 µM
- GI50 [2]: 1.2 µM
- TGI [2]: 3.5 µM and 3.55 µM
- TGI [3]: 16.2 µM
- TGI [4]: 21.6 µM
- TGI [5]: 18.4 µM
- GI50 [6]: 7.6 µM
- TGI [6]: 7.12 µM and 17.6 µM
- GI50 [7]: 2.78 µM
- TGI [7]: 8.65 µM and 13.2 µM
- TGI [8]: 3.61 µM
